Assays:
MCF-7 cells = test: MCF-7 cell growth inhibition test (SRB assay); format: cell-based, human; conditions: 73 h
Procedure: MCF-7 Cell Growth Inhibition Test (SRB Assay)
(§1) II. Reagents and Consumable Materials
Culture medium: 90% EMEM+10% FBS; Pancreatin (0.25% (w/v) solution was formulated with PBS, 0.53 mM of EDTA was added in the formulation); PBS; 96-well culture plate.
(§2) 1. A plate (10 cm) of cells in logarithmic growth phase that were normally cultured was collected;
(§3) 2. The culture solution was sucked out. The plate was washed with 5 mL of PBS once or twice;
3. 1.5 mL of 0.25% pancreatin was added to the plate to infiltrate the cells;
4. The pancreatin was sucked out. The culture plate was placed in an incubator. Digestion was carried out for about 3 min at 37° C.;
5. 4 mL of complete culture solution was added to the culture plate to stop the digestion. The cells were carefully scoured with micropipette (1 mL) to give a uniform single cell suspension. The suspension was implanted into a 96-well cell culture plate by 10000 cells/100 μL per well. The culture plate was incubated overnight under 5% CO2 at 37° C. In day 2, 100 μL of culture solution comprising a compound was added in each well. The plate was further incubated for 73 h under 5% CO2 at 37° C.;
6. The culture solution was sucked out. 100 uL of TCA fixed cells which were diluted to 10% were added to each well. The plate was kept in a refrigerator for 1 h at 4° C.
7. TCA stationary liquid was sucked out. Each well was washed with 150 μL of ddH2O five times;
8. After the stationary liquid was cleansed, the plate was dried in the air at the room temperature;
9. 60 μL of SRB staining solution was added in each well. The well was stained for 15 min at the room temperature;
10. The SRB staining solution was sucked out. Each well was washed with 150 μL of 1% glacial acetic acid five times;
11. After the SRB staining solution was cleansed, the plate was dried in the air at the room temperature;
12. 100 μL of 10 mM Tris was added in each well. The plate was vibrated to dissolve out SRB;
13. OD values were determined at 570 nM.
(§4) IV. Results and Treatments
1. Calculation of Relative Inhibition Ratio The inhibition ratio of a compound on cell growth=(PC−n)/(PC−NC)×100% […]

DU-145 cells = test: DU-145 cell growth inhibition test (MTT assay); format: cell-based; conditions: 72 h
Procedure: DU-145 Cell Growth Inhibition Test (MTT Assay)
as §1
Culture medium: 90% EMEM+10% FBS (fetal calf serum); Pancreatin (0.25% (w/v) solution was formulated with PBS, 0.53 mM of EDTA was added in the formulation); PBS; 96-well culture plate.
as §2, §3
(§5) 3. PBS was sucked out. 1.5 mL of 0.25% pancreatin was added to the plate to infiltrate the cells for 1 min;
(§6) 4. The culture plate was placed in an incubator. Digestion was carried out for about 1 min at 37° C.;
(§7) 5. 3 mL of complete culture solution was added to the culture plate to stop the digestion. The cells were carefully scoured with micropipette (1 mL) to give a uniform cell suspension. The suspension was implanted into a 96-well cell culture disc by 4000 cells/100 μL per well. The culture plate was incubated overnight under 5% CO2 at 37° C. In day 2, 100 μL of culture solution comprising a compound was added in each well. The plate was further incubated for 72 h under 5% CO2 at 37° C.;
(§8) 6. The culture solution was sucked out;
(§9) 7. 100 μL of serum-free culture solution containing 0.5 mg/mL MTT was added in each well. The plate was incubated for 3 h;
(§10) 8. The culture solution was carefully sucked out;
(§11) 9. 100 μL of DMSO was added in each well and vibrated to dissolve;
(§12) 10. OD values were determined at 490 nM.
as §4
(§13) 1. Calculation of Relative Inhibition Ratio The inhibition ratio of a compound on cell growth=(PC−n)/(PC−NC)×100%
(§14) PC: OD values of cells after normal growth in control wells without a compound;
(§15) n: OD values of cells after growth in test wells with a compound;
(§16) NC: Background OD values of blank wells without a compound and cells.

786-O cells = test: 786-O cell growth inhibition test (MTT assay); format: cell-based, human; conditions: 72 h
Procedure: 786-O Cell Growth Inhibition Test (MTT Assay)
as §1
Culture medium: 90% RPMI1640+10% FBS (fetal calf serum); Pancreatin (0.25% (w/v) solution was formulated with PBS, 0.53 mM of EDTA was added in the formulation); PBS; 96-well culture plate.
as §2, §3, §5, §6
as §7, with “2000” for “4000”
as §8, §9, §10, §11, §12, §4, §13, §14, §15, §16

SK-OV-3 cells = test: SK-OV-3 cell growth inhibition test (MTT assay); format: cell-based, human; conditions: growth inhibition at 667 nM, 69 h
How it was run: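 Human ovarian SK-OV-3 cells, 4000 per well in McCoy's 5A with 10% FBS, rested overnight, then grown 69 h with compound at 37 °C, 5% CO2. MTT (0.5 mg/mL, 3 h), DMSO solubilisation, OD at 490 nm; inhibition ratio computed against untreated and blank wells.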

MDA-MB-453 cells = test: MDA-MB-453 cell growth inhibition test (SRB assay); format: cell-based, human; conditions: growth inhibition at 2000 nM, 69.5 h
How it was run: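 MDA-MB-453 cells (7000/well) in L15 with 10% FBS were seeded overnight, then exposed to compound for 69.5 h at 37 °C and 5% CO2. After TCA fixation and SRB staining, dye was solubilised in Tris and OD read at 570 nm. Inhibition = (PC−n)/(PC−NC)×100%.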

Row | Structure (SMILES) | IC50 (MCF-7 cells) | IC50 (DU-145 cells) | IC50 (786-O cells) | Inhibition Ratio (%) (SK-OV-3 cells) | Inhibition Ratio (%) (MDA-MB-453 cells)
1 | COc1cccc2c1C(=O)c1c(O)c3c(c(O)c1C2=O)CC(O)(C(=O)COC(=O)CCC(=O)O)CC3OC1CC(n2cccc2)C(O)C(C)O1 (stereo not shown) [Compound A, 3′-pyrrolyldoxorubicin-14-oxo-succinic acid monoester, reference compound] | 785 nM | 99 nM | 180 nM |  | 
2 | COc1cccc2c1C(=O)c1c(O)c3c(c(O)c1C2=O)CC(O)(C(=O)COC(=O)CCC(=O)NCCOCCO)CC3OC1CC(n2cccc2)C(O)C(C)O1 (stereo not shown) [Example 62] |  | 34 nM | 110 nM | 63.6% | 83.7%
3 | CC(=O)O.COc1cccc2c1C(=O)c1c(O)c3c(c(O)c1C2=O)CC(O)(C(=O)COC(=O)CCC(=O)NCCCN1CCN(C)CC1)CC3O[C@H]1C[C@H](n2cccc2)[C@H](O)[C@H](C)O1 (stereo partly drawn) [Example 81, 10-((3′-(pyrrol-1-yll)-2′,3′,6′-trideoxy-alphal-l-lyxo-hexylpyranyl)oxy)-7,8,9,10-tetrahydro-6,8,11-trihydroxy-13-oxo-14-(4-((3-(4-methylpiperazin-1-yl)propyl)amino)-4-oxo-butyrato)-1-methoxy-5,12-naphthalenedione acetate] | 225 nM |  |  | 56.4% | 72%

— US9670242B2, “Tetracyclic anthraquinone derivatives” (Tianjin Hemay Bio-Tech Co., Ltd, priority 2012, dated 2017)
